Common to all, as to assay type: cell-based
One data set relates to Rhinovirus HGP. As to the kind of experiment: Antiviral activity: inhibition of viral cytopathogenic effect (C.P.E.) in HeLa cell culture. As to conditions: for IC50: Enterovirus, HeLa, 48 h; for antivirale Aktivität: qualitative statement in the description, no virus named. How it is done: (§1) Eine Suspension von HeLa-Zellen (6 x 10^4) wurde mit Rhinovirus HGP (3 x 10^3 Plaque-bildende Einheiten, PFU) gemischt und auf eine Mikrotestplatte gebracht, die die zu testenden Verbindungen in zunehmender Verdünnung enthielten. Die Zellen wurden dann in Eagle's Minimalnährlösung, die 2% Kalbsserum, 1% Tryptosephosphatbrühe, 100 ug/ml Streptomycin und 20 Einheiten/ml Penicillin G enthielt, kultiviert. Der virale zytopathogenische Effekt (C.P.E.) und die Cytotoxizität wurden mikroskopisch nach 2 Tagen Kultivierung bei 33°C beobachtet. Die antivirale Aktivität (IC50) der Testverbindungen ist diejenige Konzentration,.bei der C.P.E. um 50% gegenüber der Kontrollkultur gehemmt war. Die Cytotoxizität ist als Minimalkonzentration angegeben, bei der toxische Symptome beobachtet wurden.(cytotoxische Dosis).
On the technique in general: Cytopathic effects are the visible damage that an infection or toxin causes in cultured cells.

Data set [1] can be described thus: Cytotoxicity in HeLa cells, observed microscopically in the antiviral test. As to conditions: human, hela cells; minimal concentration at which toxic symptoms were observed (cytotoxische Dosis); 2 days at 33°C; read-out: Cytotoxizität. The procedure: as §1
The subject of a further data set is Rhinovirus 14. As to the kind of experiment: Antiviral spectrum against rhinovirus serotypes (C.P.E. inhibition). As to conditions: Enterovirus; virus strain Rhinovirus 14. The procedure: as §1
(§2) Weiterhin sind die antiviralen Spektren von 1-(4-Ethoxy-2-hydroxy-6-methoxyphenyl)-3-(4-methoxyphenyl)-1-propanon (Verbindung A) und 4-Ethoxy-2-hydroxy-6-methoxy-N-(p-methoxybenzyl)benzamid (Verbindung B) gegen verschiedene Serotypen von Rhinoviren in Tabelle 2. angegeben.

For another data set, the system named is Rhinovirus 1A. Described as above. As to conditions: Enterovirus; virus strain Rhinovirus 1A. The procedure:
as §1, §2

The subject of a further data set is Rhinovirus 1B. The data set is described as above. As to conditions: Enterovirus; virus strain Rhinovirus 1B. How it is done:
as §1, §2

A further data set relates to Rhinovirus 21. Described as above. As to conditions: Enterovirus; virus strain Rhinovirus 21. How it is done: as §1, §2
In another data set the test system is Rhinovirus 23. The description is as above. As to conditions: Enterovirus; virus strain Rhinovirus 23. The procedure: as §1, §2
Another data set has as its system Rhinovirus 24. Described as above. As to conditions: Enterovirus; virus strain Rhinovirus 24. The procedure:
as §1, §2

The next data set deals with Rhinovirus 25. The description is as above. As to conditions: Enterovirus; virus strain Rhinovirus 25. How it is done:
as §1, §2

The test system of a further data set is Rhinovirus 2. The data set is described as above. As to conditions: Enterovirus; virus strain Rhinovirus 2. How it is done:
as §1, §2

The next data set deals with Rhinovirus 31. Described as above. As to conditions: Enterovirus; virus strain Rhinovirus 31. How it is done: as §1, §2
The test system of another data set is Rhinovirus 39. Described as above. As to conditions: Enterovirus; virus strain Rhinovirus 39. The procedure: as §1, §2
The subject of a further data set is Rhinovirus 46. The description is as above. As to conditions: Enterovirus; virus strain Rhinovirus 46. How it is done: as §1, §2
The subject of another data set is Rhinovirus 50. The description is as above. As to conditions: Enterovirus; virus strain Rhinovirus 50. How it is done: as §1, §2
For another data set, the system named is Rhinovirus 9. The data set is described as above. As to conditions: Enterovirus; virus strain Rhinovirus 9. The procedure:
as §1, §2

A short description of data set [2]: Cytotoxic dose inhibiting HeLa cell growth. As to conditions: human, hela cells; footnote of Tabelle 2; read-out: cytotoxischen Dosen, die HeLa-Zellwachstum hemmen.
For the next data set, the system named is Rhinovirus 16. As to the kind of experiment: Antiviral spectrum against rhinovirus serotypes (C.P.E. inhibition). As to conditions: Enterovirus; virus strain Rhinovirus 16. The procedure: as §1, §2
The subject of the next data set is Rhinovirus 30. The description is as above. As to conditions: Enterovirus; virus strain Rhinovirus 30. How it is done:
as §1, §2

The subject of another data set is Rhinovirus 32. Described as above. As to conditions: Enterovirus; virus strain Rhinovirus 32. How it is done: as §1, §2
The next data set relates to Rhinovirus 36. Described as above. As to conditions: Enterovirus; virus strain Rhinovirus 36. The procedure: as §1, §2
The subject of the next data set is Rhinovirus 44. The data set is described as above. As to conditions: Enterovirus; virus strain Rhinovirus 44. The procedure:
as §1, §2

A further data set has as its system Rhinovirus 47. The description is as above. As to conditions: Enterovirus; virus strain Rhinovirus 47. The procedure: as §1, §2
In the next data set the test system is Rhinovirus 55. The data set is described as above. As to conditions: Enterovirus; virus strain Rhinovirus 55. How it is done:
as §1, §2

Another data set has as its system HeLa-Zellen. As to the kind of experiment: Cytotoxicity in HeLa cells, observed microscopically in the antiviral test. As to conditions: minimal concentration at which toxic symptoms were observed (cytotoxische Dosis); 2 days at 33°C. The procedure:
as §1

[3] abbreviates: concentration inhibiting C.P.E. by 50% versus control culture, HeLa cells, 2 days at 33°C, read-out: IC50.

A word on the IC50: it is the concentration that inhibits the measured activity by half.

Converted amounts (≈) assume the structure as drawn. Read-outs that look alike come from different tables or passages of the source.

In the case of `CCOc1cc(O)c(C(=O)CCc2ccc(OC)cc2)c(OC)c1` [1-(4-Ethoxy-2-hydroxy-6-methoxyphenyl)-3-(4-methoxyphenyl)-1-propanon], the IC50 is 2 ng/mL (≈ 0.00605 µM) with Rhinovirus HGP (setting [3]); 100 to 300 ng/mL (≈ 0.303 to 0.908 µM) in the data set with Rhinovirus 14; 30 to 90 ng/mL (≈ 0.0908 to 0.272 µM) in the data set on Rhinovirus 1A; 30 to 90 ng/mL (≈ 0.0908 to 0.272 µM) in the data set with Rhinovirus 1B; under 1 ng/mL with Rhinovirus 21; 4 ng/mL (≈ 0.0121 µM) with Rhinovirus 23. Further, the half-inhibitory concentration (IC50) in the data set on Rhinovirus 24 was 10 to 30 ng/mL (≈ 0.0303 to 0.0908 µM); in the data set with Rhinovirus 25, 10 to 90 ng/mL (≈ 0.0303 to 0.272 µM); in the data set with Rhinovirus 2 it was 1 ng/mL (≈ 0.00303 µM); in the data set on Rhinovirus 31, 30 to 90 ng/mL (≈ 0.0908 to 0.272 µM); in the data set on Rhinovirus 39, 12 to 37 ng/mL (≈ 0.0363 to 0.112 µM); in the data set with Rhinovirus 46 it was 37 to 110 ng/mL (≈ 0.112 to 0.333 µM). Moreover, the values for the IC50 in the data set on Rhinovirus 50 and in the data set on Rhinovirus 9 were 4 to 12 ng/mL (≈ 0.0121 to 0.0363 µM) and 12 to 37 ng/mL (≈ 0.0363 to 0.112 µM), respectively. Moreover, in the data set on Rhinovirus HGP, the “antivirale Aktivität” value was “besonders starke antivirale Aktivität”. Further, the MCC at 48 h in data set [1] is over 8 µg/mL. The MCC in data set [2] worked out at 60 µg/mL.
In the case of `CCOc1cc(O)c(C(=O)NCc2ccc(OC)cc2)c(OC)c1` [4-Ethoxy-2-hydroxy-6-methoxy-N-(p-methoxybenzyl)benzamid], the half-maximal inhibitory concentration (IC50) was 2 ng/mL (≈ 0.00604 µM) in the data set on Rhinovirus HGP (setting [3]); 9 to 27 ng/mL (≈ 0.0272 to 0.0815 µM) in the data set on Rhinovirus 14; 3 ng/mL (≈ 0.00905 µM) in the data set on Rhinovirus 16; 9 to 27 ng/mL (≈ 0.0272 to 0.0815 µM) in the data set with Rhinovirus 1A; 3 to 9 ng/mL (≈ 0.00905 to 0.0272 µM) with Rhinovirus 1B; under 1 ng/mL in the data set with Rhinovirus 21. Also, the half-maximal inhibitory concentration (IC50) in the data set on Rhinovirus 2 is 1 ng/mL (≈ 0.00302 µM); in the data set on Rhinovirus 30 it was 1 to 3 ng/mL (≈ 0.00302 to 0.00905 µM); with Rhinovirus 31, 81 to 240 ng/mL (≈ 0.244 to 0.724 µM); in the data set on Rhinovirus 32 it was 3 to 9 ng/mL (≈ 0.00905 to 0.0272 µM); with Rhinovirus 36 it was 9 to 27 ng/mL (≈ 0.0272 to 0.0815 µM); in the data set on Rhinovirus 39, 3 ng/mL (≈ 0.00905 µM). Moreover, the half-maximal inhibitory concentration (IC50) worked out at 3 ng/mL (≈ 0.00905 µM) in the data set with Rhinovirus 44; 3 ng/mL (≈ 0.00905 µM) with Rhinovirus 47; 10 ng/mL (≈ 0.0302 µM) in the data set on Rhinovirus 50; 9 ng/mL (≈ 0.0272 µM) with Rhinovirus 55; 3 ng/mL (≈ 0.00905 µM) in the data set with Rhinovirus 9. The “antivirale Aktivität” value in the data set on Rhinovirus HGP is recorded as “besonders starke antivirale Aktivität”. Moreover, in data set [1], the MCC at 48 h was over 10 µg/mL. Moreover, in data set [2], the MCC amounted to 40 µg/mL.
In the case of `CCOc1cc(OC)c(C(=O)NCc2ccc(OC)cc2)c(OP(=O)([O-])[O-])c1.[Na+].[Na+]` [Dinatrium 2-[(p-Anisylamino)carbonyl]-5-ethoxy-3-methoxyphenyl-phosphat], in the data set with Rhinovirus HGP, the half-inhibitory concentration (IC50) lay within 10 to 30 ng/mL and the “antivirale Aktivität” value is “besonders starke antivirale Aktivität”. Also, the Cytotoxizität in the data set on HeLa-Zellen is over 8 µg/mL.
Compound `CCOc1cc(OC)c(C(=O)CCc2ccc(OC)cc2)c(OP(=O)([O-])[O-])c1.[Na+].[Na+]` [Dinatrium 5-ethoxy-3-methoxy-2-[3-(4-methoxyphenyl)-propionyl]phenylphosphat] yielded an IC50 in the data set on Rhinovirus HGP of 30 to 100 ng/mL. Further, in the data set with HeLa-Zellen, the Cytotoxizität is over 10 µg/mL.
`COc1cc(O)c(C(=O)NCc2ccc(OCc3ccccc3)cc2)c(OC)c1` [N-[p-(Benzyloxy)benzyl]-2--hydroxy-4,6-dimethoxybenzamid]: the concentration for half-maximal inhibition (IC50) with Rhinovirus HGP (setting [3]) fell in the range of 300 to 900 ng/mL (≈ 0.763 to 2.29 µM). The MCC at 48 h in data set [1] is over 8 µg/mL.
As for `COc1cc(O)c(C(=O)NCc2ccc(N(C)C)cc2)c(OC)c1` [N-[p-(Dimethylamino)benzyl]-2--hydroxy-4,6-dimethoxybenzamid], in the data set on Rhinovirus HGP (setting [3]), the half-maximal inhibitory concentration (IC50) amounted to 10 ng/mL (≈ 0.0303 µM). Besides, the MCC at 48 h in data set [1] is over 8 µg/mL.
